This is an account of results in patent US20120077685A1, “INTRATUMORAL GENE EXPRESSION LEVELS OF TP AND VEGF ARE ASSOCIATED WITH CLINICAL OUTCOMES IN RECTAL CANCER PATIENTS TREATED WITH 5-FLUOROURACIL AND PELVIC RADIATION” (University of Southern California, priority 2010, published 2012).

Test [1] has as its system stage II/III rectal cancer. Briefly: Phase III trial (INT-0144, S9304) of 5-FU and radiation: disease-free survival by intratumoral gene expression tertile. It counts as in vivo, human. As for the experimental part:
Methods: A total of 422 stage II/III rectal patients from a phase III trial (INT-0144, […]) of three regimens of 5-FU and radiation were available for gene expression assays. mRNA was extracted from laser-capturemicrodissected tumor tissue. cDNA was prepared by reverse transcription and quantitation of the candidate genes was performed using a fluorescence-based real-time detection method. The gene expression data were analyzed by splitting the expression data into three (tertiles) groups using 33rd and 66th percentile.

Test [2] has as its system stage II/III rectal cancer. The settings on record: neo-adjuvant or adjuvant 5-FU and radiation therapy; cited from earlier work.

`O=c1[nH]cc(F)c(=O)[nH]1` [5-FU, 5-fluorouracil]: the “three year DFS” value in test [1] (patients with high TP gene expression (tertile)) is 79%; in test [1] (patients with high VEGF gene expression (tertile)), 65%; in test [1] (patients with low TP gene expression (tertile)), 65%; in test [1] (patients with low VEGF gene expression (tertile)), 77%; in test [1] (patients with median TP gene expression (tertile)), 67%; in test [1] (patients with median VEGF gene expression (tertile)), 69%. Further, in test [2], the “overall 5-year survival rate” value is given as “approximately 50%”.
